{"source": "patent US12480166B2", "about": "“Multiplexed fuel analysis” (ANDE Corporation, priority 2018, dated 2025)", "key": {"[1]": {"tested_on": "general bacteria 16S,T1", "test": "General 6-plex Fuel Assay (multiplexed PCR after centrifugation/DNaseI processing) of commercial fleet diesel samples before and after biocide treatment", "assay_type": "cell-based", "settings": "real-world diesel samples from commercial fleets, after vs before biocide treatment; FIG. 41", "source_text": "(§1) The approach relies in part on centrifugation to allow phase separation and to separate the intact microbial cells and cellular debris from the exposed, extracellular genomic DNA material. The extracellular material is then selectively degraded with addition of an enzyme, DNaseI. Note than DNA degradation enzymes in addition to DNAseI can be used in this approach-many such enzymes are available including restriction enzymes (particularly frequent cutters), other endonucleases, and exonucleases. DNA may also be degraded using physical methods.\n(§2) Mock fuel samples were prepared by adding 200 μl of buffer (e.g. 1×PBS, or a preferred solution to prevent cells from lysing while providing an optimal chemical environment for downstream processing) to 800 μl of diesel fuel (previously determined to be negative for microbial contamination) and spiked with 500 ng of purified Bacillus DNA and live Pseudomonas cells (approximately […]). This allowed clear distinction between DNA present extracellularly and intracellularly. The resulting sample was mixed by multiple inversions and then subjected to centrifugation at 20,000×g for 2 minutes to pelletize the live Pseudomonas cells. […]\n(§3) Biocide performance was also measured using an ATP assay for measurement of total microbial load. […]"}, "[2]": {"tested_on": "filamentous fungi 18S, T3", "test": "General 6-plex Fuel Assay (multiplexed PCR after centrifugation/DNaseI processing) of commercial fleet diesel samples before and after biocide treatment", "assay_type": "cell-based", "settings": "real-world diesel samples from commercial fleets, after vs before biocide treatment; FIG. 41", "source_text": "as §1, §2, §3"}}}
{"smiles": "N#CSCSC#N", "note": "[biocide, methylenebisthiocyanate]", "values": [{"measurement": "decline in general bacteria 16S,T1 signal after biocide treatment", "setting": "[1]", "value": "approximately 75%"}, {"measurement": "filamentous fungi 18S, T3 signal after biocide treatment", "setting": "[2]", "value": "loss"}]}
